Calls of active or inactive are those of the source. The calls are words filed in the database; no cut-off is given here.

Data on 1 compound can be found in ChEMBL document CHEMBL6121040, “Synthesis and biological assessment of BUB1B inhibitors for the treatment of clear cell renal cell carcinoma” (Eur J Med Chem, 2025).

Series [1] in a line: Downregulation of BUB1B protein expression level in human CAKI-1 cells at IC50 concentration incubated for 1 day by Western blot analysis (Rvb =1). The class given is functional. For orientation: In western blotting, separated proteins are transferred to a membrane and probed.
Series [2] is described as follows: Cytotoxicity against human HaCaT cells assessed as cell viability at 1 uM incubated for 1 day relative to control. The conditions noted are these: read-out: Activity. The series is classed as toxicity, cell-based.
Series [3] deals with CAKI-1. Briefly: Induction of apoptosis in human CAKI-1 cells assessed as decrease in Bcl-2 protein level by measuring fold change at 10 uM incubated for 1 day by Western blot analysis (reference value: 1). The class given is functional.
The nature of series [4]: Cytotoxicity against human MRC5 cells assessed as cell viability at 5 uM incubated for 1 day relative to control. The series is classed as toxicity, cell-based. The conditions noted are these: read-out: Activity.
For series [5], the target named is T1, Mitotic checkpoint serine/threonine-protein kinase BUB1 beta (Homo sapiens, UniProt O60566). Briefly: Destabilization of BUB1B in human CAKI-1 cells assessed as reduction in BUB1B protein level at 20 uM preincubated for 1 hrs followed by incubation under 45 degreeC for 3 mins by CETSA analysis (reference value: 1). The class given is cell-based. As to conditions: time 63.0 min.

Series [6] has as its target T1, Mitotic checkpoint serine/threonine-protein kinase BUB1 beta. Briefly: Inhibition of recombinant BUB1B (unknown origin) incubated for 60 mins in presence of [gamma-33P]-ATP by microplate scintillation counter analysis.
Series [7] is described as follows: Cytotoxicity against human MRC5 cells assessed as cell viability at 1 uM incubated for 1 day relative to control. The class given is toxicity, cell-based. As to conditions: read-out: Activity.
Series [8] concerns CAKI-1. The series can be described thus: Induction of apoptosis in human CAKI-1 cells assessed as increase in cleaved caspase-9 protein level at 10 uM incubated for 1 day by Western blot analysis. The series is classed as functional, cell-based.
Series [9] relates to CAKI-1. Briefly: Induction of apoptosis in human CAKI-1 cells assessed as increase in cleaved caspase-3 protein level at 10 uM incubated for 1 day by Western blot analysis. The series is classed as functional, cell-based.
Series [10] concerns CAKI-1. Briefly: Cytotoxicity against human CAKI-1 cells assessed as cell viability at 10 uM incubated for 3 day by MTT assay relative to control. The series is classed as functional. As to conditions: CAKI-1, 72 h, read-out: Activity. In general terms: Formazan colour is commonly taken as a measure of viable cells.
Series [11] can be described thus: Downregulation of BUB1B protein expression level in human CAKI-1 cells at 10 uM incubated for 1 day by Western blot analysis (Rvb =1). The series is classed as functional.
Series [12] has as its system CAKI-1. Briefly: Cytotoxicity against human CAKI-1 cells assessed as reduction in cell viability incubated for 3 days by MTT assay. The series is classed as functional, cell-based.
The nature of series [13]: Cytotoxicity against human HaCaT cells assessed as cell viability at 5 uM incubated for 1 day relative to control. The series is classed as toxicity, cell-based. The conditions noted are these: read-out: Activity.
For series [14], the system named is CAKI-1. The series can be described thus: Induction of apoptosis in human CAKI-1 cells assessed as decrease in Bcl-2 protein level by measuring fold change at IC50 concentration incubated for 1 day by Western blot analysis (reference value: 1). The class given is functional.
Series [15] relates to CAKI-1. Briefly: Cytotoxicity against human CAKI-1 cells assessed as cell viability at 10 uM incubated for 1 day by MTT assay relative to control. The class given is functional. The conditions noted are these: CAKI-1, 24 h, read-out: Activity.
In series [16] the test system is CAKI-1. Briefly: Cytotoxicity against human CAKI-1 cells assessed as necrotic cell death incubated for 3 days by LDH assay. As to conditions: CAKI-1, 72 h. The series is classed as functional, cell-based.
Series [17] relates to CAKI-1. Briefly: Induction of apoptosis in human CAKI-1 cells assessed as increase in cleaved PARP level by measuring fold change at IC50 concentration incubated for 1 day by Western blot analysis (reference value: 1). The series is classed as functional.
Series [18] concerns CAKI-1. The series can be described thus: Cytotoxicity against human CAKI-1 cells assessed as necrotic cell death incubated for 1 day by LDH assay. The series is classed as functional, cell-based. As to conditions: CAKI-1, 24 h.
In series [19] the test system is CAKI-1. The series can be described thus: Cytotoxicity against human CAKI-1 cells assessed as reduction in cell viability incubated for 1 day by MTT assay. As to conditions: CAKI-1, 24 h. The class given is functional, cell-based.
Series [20] concerns CAKI-1. The series can be described thus: Induction of apoptosis in human CAKI-1 cells assessed as increase in cleaved PARP level by measuring fold change at 10 uM incubated for 1 day by Western blot analysis (reference value: 1). The class given is functional.
The subject of series [21] is CAKI-1. Briefly: Induction of apoptosis in human CAKI-1 cells assessed as increase in cleaved caspase-8 protein level at 10 uM incubated for 1 day by Western blot analysis. The series is classed as functional, cell-based.

T1 sequence (O60566 whole entry): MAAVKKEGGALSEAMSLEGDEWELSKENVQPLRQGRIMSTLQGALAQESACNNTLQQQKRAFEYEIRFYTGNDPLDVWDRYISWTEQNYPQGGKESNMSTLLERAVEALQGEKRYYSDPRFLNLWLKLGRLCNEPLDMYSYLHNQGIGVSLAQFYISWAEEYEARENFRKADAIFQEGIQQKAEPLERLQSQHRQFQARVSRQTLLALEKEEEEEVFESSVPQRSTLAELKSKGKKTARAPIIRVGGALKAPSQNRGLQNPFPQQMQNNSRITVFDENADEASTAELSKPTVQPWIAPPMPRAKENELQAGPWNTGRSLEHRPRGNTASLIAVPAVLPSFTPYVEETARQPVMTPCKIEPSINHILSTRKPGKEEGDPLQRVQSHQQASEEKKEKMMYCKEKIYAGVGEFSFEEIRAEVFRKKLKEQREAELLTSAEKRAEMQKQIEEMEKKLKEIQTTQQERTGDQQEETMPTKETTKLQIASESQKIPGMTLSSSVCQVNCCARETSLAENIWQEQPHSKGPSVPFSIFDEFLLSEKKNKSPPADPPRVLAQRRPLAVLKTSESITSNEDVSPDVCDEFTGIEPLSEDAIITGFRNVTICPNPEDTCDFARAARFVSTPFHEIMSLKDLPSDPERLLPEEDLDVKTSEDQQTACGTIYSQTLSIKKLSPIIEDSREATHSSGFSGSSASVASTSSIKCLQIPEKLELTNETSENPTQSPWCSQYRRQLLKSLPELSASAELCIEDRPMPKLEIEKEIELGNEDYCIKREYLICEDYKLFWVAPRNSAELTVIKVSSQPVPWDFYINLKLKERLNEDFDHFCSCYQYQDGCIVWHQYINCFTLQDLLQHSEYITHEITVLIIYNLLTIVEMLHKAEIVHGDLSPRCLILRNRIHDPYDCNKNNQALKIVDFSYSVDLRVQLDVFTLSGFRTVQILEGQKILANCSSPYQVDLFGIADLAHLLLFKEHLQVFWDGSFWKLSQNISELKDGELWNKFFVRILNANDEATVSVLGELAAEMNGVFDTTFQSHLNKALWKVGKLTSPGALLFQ

The IC50 is the concentration needed to halve the response being measured. By EC50 is commonly meant the concentration needed to bring the measured effect to its halfway point. Consider `Cc1cnc(Nc2ccc(N3CCN(C)CC3)cc2)nc1Nc1cccc(S(=O)(=O)NC(C)(C)C)c1`, for which the “fold change (FC)” value was 0.14 in series [1]; 0.28 with CAKI-1 [3]; 2.19 in series [5]; 0.02 in series [11]; 0.62 in the series with CAKI-1 [14]; 2.65 in the series with CAKI-1 [17]. In the series on CAKI-1 [20], the “fold change (FC)” value was found to be 24.35. Moreover, the viability at 24 h, 1 µM in series [2] turned out to be 76.4%; in series [7] it was 107%. Moreover, the results for the viability at 24 h, 5 µM in [4] and in series [13] were 38.8% and 39.4%, respectively. Also, the IC50 in series [6] stood at 67.3 µM; in the series on CAKI-1 [12] (CAKI-1, 72 h), 1100 nM; with CAKI-1 [18], 23.9 µM; in the series on CAKI-1 [19] it was 1500 nM. The result in the series on CAKI-1 [8], in the series on CAKI-1 [9] and with CAKI-1 [21] was Active. The viability at 10 µM in the series on CAKI-1 [10] amounted to 18.9%; with CAKI-1 [15], 43.6%. For the same compound, in the series with CAKI-1 [12] (time 3.0 day), the Activity result was “Dose-dependent-effect”. For the same compound, in the series on CAKI-1 [16], the EC50 is 6.6 µM.
